Each block holds one compound with its values, some of them ahead of it.
Legend:
Format in all cases: physicochemical
[1] = Polarity study with solvatochromatic dye Nile Red (Example 3); conditions: water-saturated BA or aqueous solution of BAB
Procedure: The maximum wavelength of absorption, λmax, of a switchable hydrophilicity solvent, N,N,N′-tributylpentanamidine (BA), was analyzed in its hydrophobic and hydrophilic forms using the solvatochromatic dye, Nile Red. A 1 Dram vial was prepared containing 1 mL of distilled water to which 1 mL of BA was added. […] This ensured saturation of the BA phase with water. The top phase comprising the BA liquid was pipetted into a quartz cuvette (Semi-Micro Cells, Self Masking Black Walls Spectrosil® Quartz, Starna Cells, Atascadero, Calif., USA) and 1 mg of Nile Red was added, to provide a bright orange-magenta solution. The ultraviolet absorbance spectrum was acquired on an Agilent Technologies ultraviolet/visible spectrometer 50-60 Hz with UV-Visible Chemstation software. The λmax was 510 nm. Distilled water (1.0 mL) was then added to the quartz cuvette and carbon dioxide was slowly bubbled into the mixture for 1 hour to switch the BA to its ionic form, N,N,N′-tributylpentanamidinium bicarbonate (BAB), after which the homogenous mixture turned purple. The ultraviolet absorbance spectrum of the aqueous solution of the dye and ionic salt was then acquired as discussed in the previous paragraph. The λmax was 570 nm.

[2] = Qualitative switchability assessment of BA (Example 1B); conditions: 80 °C oil bath, stirred
From the text: The BA amidine's ability to act as a switchable hydrophilicity solvent for the separation of a selected substance is dependent on its ability to switch from the hydrophobic form to a hydrophilic form. This is achieved by adding water to provide an aqueous layer and decreasing the pH of the aqueous layer, namely by dissolving CO2 in the aqueous layer. When carbon dioxide dissolves in water, it forms carbonic acid with pKa1 of 6.4. The resultant dissociation is sufficient to protonate a hydrophobic amidine, causing it to become charged forming a hydrophilic amidinium bicarbonate (BAB). In this preliminary switching study, the amidine's ability to act as a base and its ability to switch hydrophilicity were studied.
Switching behavior was studied for BA over various periods of time. A glass vial (4 mL) was prepared, containing distilled water (1.0 mL) and BA amidine (0.5 mL).
CO2 was bubbled through the vial for roughly 30 minutes, until the top layer had disappeared showing that a hydrophilic solution of BAB in water had been formed.
A magnetic stirrer was placed in the vial. The vial was suspended in an 80° C. oil bath and stirred. The vial was intermittently removed from the bath and monitored for the presence of a second layer after 20, 50 and 75 minutes. The formation of a second layer (hydrophobic BA) was noted after 20 minutes in the oil bath.

[3] = Quantitative switching study of BA by 1H NMR (Example 1D)
Procedure: A methanol-d4 solution was prepared containing a sodium acetate internal standard (48.8 mM).
Two 4 mL glass vials containing 1.0 mL D2O and 0.5 mL BA were prepared and shaken. A 50 μL sample was withdrawn from each layer of one vial and combined with 0.50 mL of the sodium acetate standard solution in each of two NMR tubes: the top layer (BA) in a first tube; the bottom layer (aqueous) in a second tube.
Carbon dioxide was bubbled through the unsampled vial until the BA had completely converted to BAB, as evidenced by the disappearance of the top layer. The pH of the solution was measured using pH paper to be approximately 8-9. A 50 μL sample was withdrawn from the BAB/D2O solution and added to 0.50 mL of the sodium acetate standard solution in a third NMR tube.
The 4.0 mL vial from which the last NMR sample was withdrawn was then heated at 80° C. for 1 h and stirred by a magnetic stirrer. Bubbles of CO2 were observed escaping from the solution and a top layer, hydrophobic amidine, appeared. After cooling the vial to room temperature, a 50 μL sample was withdrawn from each layer and combined with 0.50 mL of the sodium acetate standard in two NMR tubes: the top layer (BA) in a fourth tube; the bottom layer (aqueous) in a fifth tube.
The NMR spectra of all five samples are shown in FIG. 10 with the first to fifth tubes shown from top to bottom. […] In addition, using the ‘c’ and ‘d’ protons provided stronger signals, to improve accuracy. Based on the strength of the ‘c’ and ‘d’ signals, 11% of the BA remained in the aqueous phase as BAB after the experiment
Using dioxane as the internal standard gave the same results (11% BAB retention in the aqueous phase) as sodium acetate.
The same experiment was repeated except that the temperature of the heating of the 4.0 mL vial was increased from 80° C. to 90° C. A similar retention of BAB in the aqueous phase (12%) was observed.

[4] = Conversion of amine switchable hydrophilicity solvents back to hydrophobic form by heating (Example 5C); conditions: for loss of amine during heating (excessive volatility): 80 °C, approximately 60 minutes
Procedure: All of the amines identified as switchable hydrophilicity solvents in Example 5B (except N,N-dimethylbutylamine) were subjected to the following test. The vial containing the single-phase amine/water/CO2 mixture prepared in example 5B was heated in an oil bath at 80° C. for approximately 60 minutes. The mixture was magnetically stirred, and phase separation was observed throughout the course of heating. In the case of the N1,N1,N4,N4-tetraethylbutane-1,4-diamine/water/CO2 mixture, 5 hours of heating was required to switch it back to its hydrophobic form.

[5] = Separation of switchable solvent from soybean oil with CO2/carbonated water (Examples 2A, 2C)
Procedure: A 4 mL vial was prepared containing 1.0 mL D2O, 0.5 mL BA and 0.5 mL soybean oil. The vial was shaken thoroughly and allowed to settle, showing a 1.0 mL upper layer (soybean oil and BA) and a 1.0 mL lower layer (D2O). ^1H NMR samples (50 μL) were withdrawn from each layer and mixed with methanol-d4 (0.5 mL) containing a dioxane internal standard (51.5 mM). Another sample was withdrawn from the upper layer for ^1H NMR analysis in CDCl3, because soybean oil is not miscible with methanol. The same volume was discarded from the bottom layer to maintain the initial ratio.
CO2 was bubbled through the system for 1.5 h, at which time the top layer appeared to have halved in volume. Using the same system, ^1H NMR analysis was again conducted on both layers, the bottom layer in methanol-d4 and the top layer in CDCl3.
A 1.0 mL portion of the bottom layer was withdrawn and transferred to a new 4.0 mL vial. A magnetic stirrer was added and the vial was stirred at 80° C. for 1 h. Samples were withdrawn from both layers for ^1H NMR analysis in methanol-d4 with reference to the dioxane internal standard.
The switching behavior of BA in the presence of soybean oil was studied qualitatively and by ^1H NMR spectroscopy as shown in FIG. 11. The top spectrum is that of soy oil. The middle spectrum is that of the upper (organic) phase after the mixing of the BA, soy oil and D2O. This upper phase comprises soy oil and BA. The bottom spectrum is that of the upper (organic) phase after the addition of the CO2 trigger and comprises predominantly soy oil and any residual solvent.
The most informative ^1H NMR spectra in this experiment were those showing the separation of the soy oil and BA. Based on the integration of the peak corresponding to BA at 3.17 ppm in these spectra, 96% of the amidine was removed from the upper soybean oil layer after switching to its hydrophilic BAB form. Other spectra (not shown), collected in methanol-d4 with a dioxane internal standard, confirmed the switching behavior presented in Example 1 above, showing 11% retention of BA in the aqueous phase after heating.
It was possible to remove a high percentage of N1,N1,N4,N4-tetraethylbutane-1,4-diamine from the soybean oil be mixing with carbonated water. The percentage removal was 98.65%. In contrast, 96% of BA was removed from the soybean oil.

[6] = Miscibility of amines with water in the presence of CO2 (Example 5B); conditions: CO2 bubbled through amine/water mixture for at least one hour
Procedure: All of the amines that formed a biphasic mixture in Example 5A were subjected to the following test. Carbon dioxide was bubbled through the amine/water biphasic mixture, via a syringe needle, for at least one hour. Care was taken to regulate the rate of the CO2 bubbling, so as not to cause evaporation of the amine. The liquid-liquid interface was observed over the course of CO2 bubbling, and a photo was taken after 60 minutes.

[7] = Miscibility of amines with water in the absence of CO2 (Example 5A); conditions: 1 mL amine + 1 mL H2O, room temperature, visual
Procedure: 1 mL of an appropriate amine was combined with 1 mL of H2O in a 4 mL vial, with the 1 and 2 mL volume lines marked. The vial was manually shaken and left to settle at room temperature. After the mixture settled, the number of phases was observed visually. This procedure was performed for all of the screened amines.

[8] = Visual and NMR study of amine switchable hydrophilicity solvents (Example 6)
Procedure: The following amines were evaluated in this series of experiments: N-ethylpiperidine, N,N-dimethylcyclohexylamine, and N,N-dimethylhexylamine. The sequence of experiments is described for one amine but was performed for all three. The visual observations are described in Table 3. 1,4-Dioxane was used as an internal standard for NMR spectroscopy.
Amine (1 mL) was combined with D2O (1 mL) in a 10 mL graduated cylinder, which was then capped with a rubber septum. The cylinder was manually shaken and left to settle at room temperature, after which the mixture appeared as two transparent liquid phases. For each amine, this procedure was simultaneously conducted in 3 identical cylinders. From the aqueous (bottom) layer of one of the three cylinders, three 250 μL samples were withdrawn, combined with equal volumes of D2O and dioxane internal standard, and analyzed by ^1H NMR spectroscopy. The spectra were consistent with the amine in the aqueous phase being in its neutral form. The graduated cylinder from which the samples were taken was discarded.
For each of two remaining graduated cylinders, carbon dioxide was bubbled through the amine/water biphasic mixture, via a syringe needle, for at least one hour. Care was taken to regulate the rate of the CO2 bubbling, so as not to cause significant evaporation of the amine. The mixture changed from a biphasic liquid mixture to a single homogeneous liquid phase. From one of the two graduated cylinders, a 300 μL sample of the homogenous liquid phase was withdrawn and mixed with an equal volume of D2O and a known quantity of dioxane internal standard. […] The graduated cylinder from which the sample was taken was discarded.
The remaining graduated cylinder, containing the single-phase amine/water/CO2 mixture prepared above, was heated in an oil bath at 80 deg. C for 1 hour. Phase separation was observed. Three 250 μL samples of the aqueous (bottom) layer were withdrawn, combined with equal volumes of D2O and a known quantity of dioxane internal standard, and analyzed by NMR spectroscopy.

[9] = CO2 bubbling time to phase merge with and without piperazine; conditions: 5 mL amine + 5 mL water, room temperature, CO2 100 mL/min
Procedure: In some embodiments, addition of a small amount of piperazine further increases the rate of conversion of a switchable hydrophilicity solvent to its ionic form. […] In the presence of an absorption activator, specifically 10 wt % piperazine, the time of CO2 bubbling to phase merge was only 20 minutes. Although not experimentally shown, the inventors expect that piperazine would have a similar absorption activating effect for compounds of formula (1). A similar improvement in CO2 capture for aqueous solutions of tertiary amines was reported by Dubois (Chem. Eng. Tech. 32(5): 710 (2009)).

[10] = listed as N,N-dimethyl-N-cyclohexylamine

heating time required to switch back to hydrophobic form ([4]; amine/water/CO2 mixture, oil bath 80 °C, stirred): 5 h
solvent removed from soybean oil after switching to hydrophilic form ([5]; CO2 / carbonated water): 98.65%
miscibility with soybean oil ([5]; neutral hydrophobic form): miscible with soybean oil
miscibility with water after CO2 treatment [6]: single-phase
miscibility with water after CO2 treatment ([6]; listed as Et2NCH2CH2CH2CH2NEt2): miscible
miscibility with water under air (absence of CO2) [7]: biphasic
miscibility with water under air (absence of CO2) ([7]; listed as Et2NCH2CH2CH2CH2NEt2): immiscible
Structure (SMILES): CCN(CC)CCCCN(CC)CC [N1,N1,N4,N4-tetraethylbutane-1,4-diamine]

loss of amine during heating (excessive volatility) [4]: loss of amine
miscibility with water after CO2 treatment [6]: single-phase
miscibility with water after CO2 treatment ([6]; listed as dipropylmethylamine): became water-miscible
miscibility with water under air (absence of CO2) [7]: biphasic
miscibility with water under air (absence of CO2) ([7]; listed as dipropylmethylamine): immiscible with water
Structure (SMILES): CCCN(C)CCC [methyldipropylamine]

loss of amine during heating (excessive volatility) [4]: loss of amine
miscibility with water after CO2 treatment [6]: single-phase
miscibility with water after CO2 treatment ([6]; listed as N,N,N-triethylamine): became water-miscible
miscibility with water under air (absence of CO2) [7]: biphasic
miscibility with water under air (absence of CO2) ([7]; listed as N,N,N-triethylamine): immiscible with water
Structure (SMILES): CCN(CC)CC [triethylamine]

Second part, the compound before the results:

Structure (SMILES): CCCCN=C(CCCC)N(CCCC)CCCC.O=C(O)O [BAB, N,N,N′-tributylpentanamidinium bicarbonate]
maximum wavelength of absorption (λmax) of Nile Red [1]: 570 nm
heating time to formation of second (hydrophobic) layer [2]: 20 min
BAB retention in the aqueous phase after heating ([3]; 80 °C, 1 h, dioxane internal standard): 11%
retention of BAB in the aqueous phase after heating ([3]; 90 °C): 12%
pH of solution after complete conversion with CO2 ([3]; BAB/D2O solution, pH paper): 8-9
BAB ionic form converted back to BA ([3]; after heating for 1 hour): > 90%

Structure (SMILES): CN(C)C1CCCCC1 [N,N-dimethylcyclohexylamine]
time of CO2 bubbling to form one homogeneous solution ([8]; 1 mL amine + 1 mL D2O): took 45 min to form one
number of layers formed without CO2 ([8]; 1 mL amine + 1 mL D2O, room temperature): formed 2 clear,
time of heating to separate into 2 layers ([8]; oil bath 80 deg. C): after 30 min, solution has
volume of bottom (aqueous) layer after heating ([8]; oil bath 80 deg. C): clear & colorless, with volume of 1 mL,
volume of top layer after heating ([8]; oil bath 80 deg. C): oily, with volume of 0.8 mL
miscibility with water after CO2 treatment [6]: single-phase
miscibility with water after CO2 treatment [6, 10]: became water-miscible
time of CO2 bubbling to phase merge ([9]; 10 wt % piperazine): 20 min
time of CO2 bubbling for phase merge ([9]; absence of piperazine): 35 min
miscibility with water under air (absence of CO2) [7]: biphasic
miscibility with water under air (absence of CO2) [7, 10]: immiscible with water

Source: patent publication US8900444B2, “Switchable hydrophilicity solvents and methods of use thereof” (Queen's University at Kingston, priority 2009, dated 2014)
